Test results reported in ChEMBL document CHEMBL4507296 (2021).

Assays:
[1] = target: Phosphorylase b kinase regulatory subunit alpha, liver isoform (Homo sapiens) (UniProt P46019); details: Compound concentration 1000.0 nM
[2] = target: Muscarinic acetylcholine receptor M2 (Homo sapiens) (UniProt P08172); details: Compound concentration 10.0 uM
[3] = system: Hepatocyte growth factor receptor (Homo sapiens), P08581 [Y1235D]; details: Compound concentration 1000.0 nM
[4] = target: Serine/threonine-protein kinase DCLK1 (Homo sapiens) (UniProt O15075); details: Compound concentration 1000.0 nM
[5] = target: Serine/threonine-protein kinase TBK1 (Homo sapiens) (UniProt Q9UHD2); details: Compound concentration 1000.0 nM
[6] = target: Bone morphogenetic protein receptor type-2 (Homo sapiens) (UniProt Q13873); details: Compound concentration 1000.0 nM
[7] = target: Receptor-interacting serine/threonine-protein kinase 1 (Homo sapiens) (UniProt Q13546); details: Compound concentration 1000.0 nM
[8] = target: Homeodomain-interacting protein kinase 2 (Homo sapiens) (UniProt Q9H2X6); details: Compound concentration 1000.0 nM
[9] = target: Cyclin-dependent kinase-like 3 (Homo sapiens) (UniProt Q8IVW4); details: Compound concentration 1000.0 nM
[10] = target: Serine/threonine-protein kinase Nek7 (Homo sapiens) (UniProt Q8TDX7); details: Compound concentration 1000.0 nM
[11] = target: Receptor tyrosine-protein kinase erbB-4 (Homo sapiens) (UniProt Q15303); details: Compound concentration 1000.0 nM
Receptor tyrosine-protein kinase erbB-4 (Homo sapiens), sequence (Q15303 whole entry): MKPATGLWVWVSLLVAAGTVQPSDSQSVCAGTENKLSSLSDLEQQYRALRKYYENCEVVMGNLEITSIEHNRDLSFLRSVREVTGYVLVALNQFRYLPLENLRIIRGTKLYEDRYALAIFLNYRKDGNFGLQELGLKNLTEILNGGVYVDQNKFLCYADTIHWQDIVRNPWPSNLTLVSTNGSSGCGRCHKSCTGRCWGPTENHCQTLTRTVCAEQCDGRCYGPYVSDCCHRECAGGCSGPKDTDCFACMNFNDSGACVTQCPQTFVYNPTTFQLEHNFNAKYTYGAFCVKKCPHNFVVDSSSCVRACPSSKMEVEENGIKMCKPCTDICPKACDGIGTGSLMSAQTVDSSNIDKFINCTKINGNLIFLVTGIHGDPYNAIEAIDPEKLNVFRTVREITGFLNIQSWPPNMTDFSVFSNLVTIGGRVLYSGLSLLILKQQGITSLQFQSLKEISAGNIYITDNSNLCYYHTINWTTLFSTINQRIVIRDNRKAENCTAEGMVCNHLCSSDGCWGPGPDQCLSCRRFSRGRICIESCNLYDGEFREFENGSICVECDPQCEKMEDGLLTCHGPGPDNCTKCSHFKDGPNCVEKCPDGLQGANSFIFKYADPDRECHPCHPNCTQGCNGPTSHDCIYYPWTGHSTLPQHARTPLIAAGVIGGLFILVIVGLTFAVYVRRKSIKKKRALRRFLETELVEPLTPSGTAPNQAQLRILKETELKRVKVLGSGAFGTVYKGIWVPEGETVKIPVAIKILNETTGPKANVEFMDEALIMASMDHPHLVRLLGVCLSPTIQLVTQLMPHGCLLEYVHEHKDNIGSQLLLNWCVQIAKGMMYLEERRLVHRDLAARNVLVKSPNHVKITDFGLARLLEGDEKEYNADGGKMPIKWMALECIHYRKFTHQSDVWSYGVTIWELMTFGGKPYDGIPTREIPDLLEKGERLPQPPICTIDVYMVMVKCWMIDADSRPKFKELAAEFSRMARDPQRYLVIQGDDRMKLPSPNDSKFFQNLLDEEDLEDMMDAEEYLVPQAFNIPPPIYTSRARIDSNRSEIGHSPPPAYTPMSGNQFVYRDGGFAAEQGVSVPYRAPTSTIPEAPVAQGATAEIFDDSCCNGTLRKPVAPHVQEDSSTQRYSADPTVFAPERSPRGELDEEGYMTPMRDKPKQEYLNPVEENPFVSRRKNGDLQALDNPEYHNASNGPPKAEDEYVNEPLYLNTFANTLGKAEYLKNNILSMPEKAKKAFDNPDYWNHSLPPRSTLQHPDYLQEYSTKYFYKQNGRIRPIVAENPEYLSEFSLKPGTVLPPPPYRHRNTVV

[12] = target: Sodium-dependent noradrenaline transporter (Homo sapiens) (UniProt P23975); details: Compound concentration 10.0 uM
[13] = target: Calcium/calmodulin-dependent protein kinase kinase 2 (Homo sapiens) (UniProt Q96RR4); details: Compound concentration 1000.0 nM
[14] = target: Cyclin-dependent kinase 2 homolog (Plasmodium falciparum (isolate 3D7)) (UniProt P61075); details: Compound concentration 1000.0 nM
[15] = target: RAC-alpha serine/threonine-protein kinase (Homo sapiens) (UniProt P31749); details: Compound concentration 1000.0 nM
[16] = target: Dual specificity protein kinase CLK3 (Homo sapiens) (UniProt P49761); details: Compound concentration 1000.0 nM
[17] = target: Mast/stem cell growth factor receptor Kit (Homo sapiens) (UniProt P10721); details: Compound concentration 1000.0 nM
[18] = target: Cyclin-dependent kinase 14 (Homo sapiens) (UniProt O94921); details: Compound concentration 1000.0 nM
[19] = target: Voltage-gated sodium channel (Na+ channel, site 2) (Rattus norvegicus, UniProt F1LQQ7+O08562+O88420+O88457+P04774+P04775+P08104+P15389+P15390+Q62968); assay: Na+ channel (site 2) (rat) CEREP ligand profiling; format: protein assay; details: compound concentration 10 uM
[20] = target: Serine/threonine-protein kinase WNK2 (Homo sapiens) (UniProt Q9Y3S1); details: Compound concentration 1000.0 nM
[21] = system: Hepatocyte growth factor receptor (Homo sapiens), P08581 [M1250T]; details: Compound concentration 1000.0 nM
[22] = target: Activated CDC42 kinase 1 (Homo sapiens) (UniProt Q07912); details: Compound concentration 1000.0 nM
[23] = system: ALK tyrosine kinase receptor (Homo sapiens), Q9UM73 [C1156Y]; details: Compound concentration 1000.0 nM
[24] = target: 5-hydroxytryptamine receptor 7 (Homo sapiens) (UniProt P34969); details: Compound concentration 10.0 uM
5-hydroxytryptamine receptor 7 (Homo sapiens), sequence (P34969 whole entry): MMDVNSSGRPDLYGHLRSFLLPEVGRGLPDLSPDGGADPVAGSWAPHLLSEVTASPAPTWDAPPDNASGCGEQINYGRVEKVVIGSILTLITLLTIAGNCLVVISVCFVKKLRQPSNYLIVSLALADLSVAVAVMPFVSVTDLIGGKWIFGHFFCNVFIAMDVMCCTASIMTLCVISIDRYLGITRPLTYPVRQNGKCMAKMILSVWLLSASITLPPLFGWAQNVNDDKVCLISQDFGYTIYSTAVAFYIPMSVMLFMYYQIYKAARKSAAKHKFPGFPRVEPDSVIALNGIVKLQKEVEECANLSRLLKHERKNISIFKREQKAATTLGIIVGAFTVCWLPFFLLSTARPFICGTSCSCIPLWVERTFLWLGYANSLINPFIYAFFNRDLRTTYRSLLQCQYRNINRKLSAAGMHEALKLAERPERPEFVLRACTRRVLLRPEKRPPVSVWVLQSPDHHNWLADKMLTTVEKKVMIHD

[25] = target: Serine/threonine-protein kinase SBK1 (Homo sapiens) (UniProt Q52WX2); details: Compound concentration 1000.0 nM
[26] = target: Cyclin-dependent kinase 4 (Homo sapiens) (UniProt P11802); details: Compound concentration 1000.0 nM
[27] = target: Non-receptor tyrosine-protein kinase TYK2 (Homo sapiens) (UniProt P29597); details: Compound concentration 1000.0 nM
[28] = target: NUAK family SNF1-like kinase 2 (Homo sapiens) (UniProt Q9H093); details: Compound concentration 1000.0 nM
[29] = target: Cyclin-dependent kinase 5 (Homo sapiens) (UniProt Q00535); details: Compound concentration 1000.0 nM
Cyclin-dependent kinase 5 (Homo sapiens), sequence (Q00535 whole entry, looked up): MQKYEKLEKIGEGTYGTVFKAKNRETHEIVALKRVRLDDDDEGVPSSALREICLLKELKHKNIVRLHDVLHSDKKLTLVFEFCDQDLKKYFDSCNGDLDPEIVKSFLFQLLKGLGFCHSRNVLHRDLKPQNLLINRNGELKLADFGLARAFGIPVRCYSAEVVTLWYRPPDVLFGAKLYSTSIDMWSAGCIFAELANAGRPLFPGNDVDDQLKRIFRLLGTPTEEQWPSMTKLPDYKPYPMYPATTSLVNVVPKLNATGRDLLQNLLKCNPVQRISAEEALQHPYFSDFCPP

[30] = target: Cyclin-dependent kinase 16 (Homo sapiens) (UniProt Q00536); details: Compound concentration 1000.0 nM
[31] = target: Serine/threonine-protein kinase SIK1 (Homo sapiens) (UniProt P57059); details: Compound concentration 1000.0 nM
[32] = target: Mitogen-activated protein kinase 14 (Homo sapiens) (UniProt Q16539); details: Compound concentration 1000.0 nM
Mitogen-activated protein kinase 14 (Homo sapiens), sequence (Q16539 whole entry): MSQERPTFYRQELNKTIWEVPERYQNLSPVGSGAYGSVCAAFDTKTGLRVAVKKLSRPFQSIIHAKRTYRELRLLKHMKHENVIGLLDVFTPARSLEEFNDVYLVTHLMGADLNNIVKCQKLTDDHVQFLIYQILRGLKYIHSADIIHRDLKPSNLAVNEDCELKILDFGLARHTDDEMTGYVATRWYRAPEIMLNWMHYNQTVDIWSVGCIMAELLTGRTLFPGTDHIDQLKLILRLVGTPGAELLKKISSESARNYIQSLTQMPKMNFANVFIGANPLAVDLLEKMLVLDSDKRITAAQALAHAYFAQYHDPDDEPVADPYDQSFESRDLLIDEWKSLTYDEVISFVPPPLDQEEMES

[33] = target: Aurora kinase C (Homo sapiens) (UniProt Q9UQB9); details: Compound concentration 1000.0 nM
[34] = target: Serine/threonine-protein kinase ULK1 (Homo sapiens) (UniProt O75385); details: Compound concentration 1000.0 nM
[35] = target: Cyclin-dependent kinase 11A (Homo sapiens) (UniProt Q9UQ88); details: Compound concentration 1000.0 nM
[36] = target: Homeodomain-interacting protein kinase 4 (Homo sapiens) (UniProt Q8NE63); details: Compound concentration 1000.0 nM
[37] = system: Proto-oncogene tyrosine-protein kinase receptor Ret (Homo sapiens), P07949 [M918T]; details: Compound concentration 1000.0 nM
[38] = target: Tyrosine-protein kinase FRK (Homo sapiens) (UniProt P42685); details: Compound concentration 1000.0 nM
[39] = target: Serine/threonine-protein kinase BRSK1 (Homo sapiens) (UniProt Q8TDC3); details: Compound concentration 1000.0 nM
Serine/threonine-protein kinase BRSK1 (Homo sapiens), sequence (Q8TDC3 whole entry): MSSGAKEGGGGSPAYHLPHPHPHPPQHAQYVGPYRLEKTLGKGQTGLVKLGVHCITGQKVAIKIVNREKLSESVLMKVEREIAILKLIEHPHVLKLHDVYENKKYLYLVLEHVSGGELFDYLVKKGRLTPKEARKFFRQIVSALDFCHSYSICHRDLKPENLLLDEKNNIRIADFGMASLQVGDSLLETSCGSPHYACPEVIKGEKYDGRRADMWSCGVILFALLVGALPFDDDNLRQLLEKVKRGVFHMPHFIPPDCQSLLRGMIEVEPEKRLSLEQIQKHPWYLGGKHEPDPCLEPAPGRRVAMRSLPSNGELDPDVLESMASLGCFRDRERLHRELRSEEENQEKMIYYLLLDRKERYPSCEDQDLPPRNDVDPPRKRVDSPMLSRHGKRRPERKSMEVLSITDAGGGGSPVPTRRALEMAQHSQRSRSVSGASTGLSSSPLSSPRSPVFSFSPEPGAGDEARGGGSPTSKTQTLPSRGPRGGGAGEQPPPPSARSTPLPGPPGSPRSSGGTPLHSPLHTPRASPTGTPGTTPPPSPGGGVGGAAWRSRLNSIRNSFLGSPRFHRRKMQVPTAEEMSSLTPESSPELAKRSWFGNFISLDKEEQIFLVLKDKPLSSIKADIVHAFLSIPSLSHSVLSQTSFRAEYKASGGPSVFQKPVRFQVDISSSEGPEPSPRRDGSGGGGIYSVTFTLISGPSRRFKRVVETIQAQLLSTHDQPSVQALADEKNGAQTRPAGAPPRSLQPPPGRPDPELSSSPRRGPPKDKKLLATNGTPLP

[40] = target: Serine/threonine-protein kinase PAK 1 (Homo sapiens) (UniProt Q13153); details: Compound concentration 1000.0 nM
[41] = target: Dual specificity protein kinase CLK2 (Homo sapiens) (UniProt P49760); details: Compound concentration 1000.0 nM
Dual specificity protein kinase CLK2 (Homo sapiens), sequence (P49760 whole entry, looked up): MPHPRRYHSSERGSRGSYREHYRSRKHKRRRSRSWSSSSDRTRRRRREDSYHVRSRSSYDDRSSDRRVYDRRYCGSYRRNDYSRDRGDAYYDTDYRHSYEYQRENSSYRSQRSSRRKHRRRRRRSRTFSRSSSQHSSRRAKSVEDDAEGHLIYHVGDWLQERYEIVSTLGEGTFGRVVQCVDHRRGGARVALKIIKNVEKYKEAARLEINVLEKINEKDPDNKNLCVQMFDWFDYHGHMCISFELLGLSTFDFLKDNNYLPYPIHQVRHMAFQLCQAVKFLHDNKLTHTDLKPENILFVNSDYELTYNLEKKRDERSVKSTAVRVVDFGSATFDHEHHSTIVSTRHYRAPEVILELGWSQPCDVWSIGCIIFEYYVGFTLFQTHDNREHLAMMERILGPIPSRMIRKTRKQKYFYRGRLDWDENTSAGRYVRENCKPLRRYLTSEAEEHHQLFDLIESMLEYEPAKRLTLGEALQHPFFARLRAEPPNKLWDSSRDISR

[42] = target: Serine/threonine-protein kinase pim-1 (Homo sapiens) (UniProt P11309); details: Compound concentration 1000.0 nM
[43] = system: Tyrosine-protein kinase ABL1 (Homo sapiens), P00519 [H396P]; details: Compound concentration 1000.0 nM
[44] = system: Epidermal growth factor receptor (Homo sapiens), P00533 [UNDEFINED MUTATION]; details: Compound concentration 1000.0 nM

Phosphorylase b kinase regulatory subunit alpha, liver isoform (Homo sapiens), sequence (P46019 whole entry, canonical isoform): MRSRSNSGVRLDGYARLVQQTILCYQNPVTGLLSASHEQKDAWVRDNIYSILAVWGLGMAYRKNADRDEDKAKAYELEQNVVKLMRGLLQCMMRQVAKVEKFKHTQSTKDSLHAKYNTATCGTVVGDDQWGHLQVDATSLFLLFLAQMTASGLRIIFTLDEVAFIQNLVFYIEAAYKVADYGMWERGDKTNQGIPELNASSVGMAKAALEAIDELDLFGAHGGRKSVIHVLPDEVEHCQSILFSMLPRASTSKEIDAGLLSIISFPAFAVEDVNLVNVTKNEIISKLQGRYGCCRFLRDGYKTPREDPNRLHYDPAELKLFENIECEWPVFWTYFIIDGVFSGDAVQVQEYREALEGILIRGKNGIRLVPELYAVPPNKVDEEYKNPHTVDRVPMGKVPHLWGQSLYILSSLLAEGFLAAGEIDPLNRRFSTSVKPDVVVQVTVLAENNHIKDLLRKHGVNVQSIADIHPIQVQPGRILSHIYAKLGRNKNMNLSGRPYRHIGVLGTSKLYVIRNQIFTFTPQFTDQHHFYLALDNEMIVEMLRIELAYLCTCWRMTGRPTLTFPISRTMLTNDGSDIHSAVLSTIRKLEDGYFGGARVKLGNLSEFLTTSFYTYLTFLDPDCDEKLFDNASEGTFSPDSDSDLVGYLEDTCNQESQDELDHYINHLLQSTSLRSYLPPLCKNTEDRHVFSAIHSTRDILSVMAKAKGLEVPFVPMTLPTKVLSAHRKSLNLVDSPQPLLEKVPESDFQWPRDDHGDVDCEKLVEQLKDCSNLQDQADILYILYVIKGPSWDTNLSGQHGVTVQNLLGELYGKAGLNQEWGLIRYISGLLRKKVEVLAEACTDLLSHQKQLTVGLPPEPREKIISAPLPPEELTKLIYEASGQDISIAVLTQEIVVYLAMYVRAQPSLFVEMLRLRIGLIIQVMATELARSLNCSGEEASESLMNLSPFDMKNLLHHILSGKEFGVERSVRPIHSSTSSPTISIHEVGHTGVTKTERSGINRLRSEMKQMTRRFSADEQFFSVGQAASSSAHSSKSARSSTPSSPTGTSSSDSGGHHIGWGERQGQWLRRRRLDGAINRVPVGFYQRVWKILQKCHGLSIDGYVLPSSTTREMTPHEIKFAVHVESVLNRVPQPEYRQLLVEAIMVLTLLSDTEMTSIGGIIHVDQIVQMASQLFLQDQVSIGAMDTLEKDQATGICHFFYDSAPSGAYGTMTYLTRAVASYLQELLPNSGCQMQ

C[C@H](c1ccc(F)cc1)N(Cc1cccc(C(=O)O)c1)C(=O)c1cnc2ccccc2c1 [PF-05105679]
active: residual activity [32] 0%
inactive: residual activity [1] 100% | inhibition [2] 12.6% | residual activity [3] 100% | residual activity [4] 100% | residual activity [5] 91% | residual activity [6] 75% | residual activity [7] 100% | residual activity [8] 100% | residual activity [9] 64% | residual activity [10] 100% | residual activity [11] 94% | inhibition [12] 2.04% | residual activity [13] 95% | residual activity [14] 100% | residual activity [15] 100% | residual activity [16] 100% | residual activity [17] 100% | residual activity [18] 100% | residual activity [20] 96% | residual activity [21] 93% | residual activity [22] 100% | residual activity [23] 69% | inhibition [24] -2.7% | residual activity [25] 92% | residual activity [26] 100% | residual activity [27] 92% | residual activity [28] 100% | residual activity [29] 100% | residual activity [30] 100% | residual activity [31] 90% | residual activity [33] 100% | residual activity [34] 86% | residual activity [35] 100% | residual activity [36] 93% | residual activity [37] 86% | residual activity [38] 77% | residual activity [39] 100% | residual activity [40] 100% | residual activity [41] 98% | residual activity [42] 100% | residual activity [43] 73% | residual activity [44] 100%
32% (not active): inhibition at 10 µM [19]
